Values joined by “and” are separate entries in the source; they are usually repeats but may differ in a detail not shown here. Identical values can stand only once. Square brackets hold non-standard residues; d marks the D form. Peptide text beside a SMILES is read from it. βAla = NCCC(=O)O
What was measured:
[1] = Conformational studies based on circular dichroism; assay type: physicochemical
Method: Conformational studies based on circular dichroism were performed under different conditions, such as: • 10 mM phosphate buffer, pH 7 • MES buffer 10 mM, pH 6 • Buffer acetate 10 mM, pH 5 • Phosphate buffer 10 mM/TFE (1:1) • TFE (trifluoroethanol)
Conformational studies based on circular dichroism were performed under different conditions such as: • 10 mM phosphate buffer, pH7 • Phosphate buffer 10mM/TFE, pH7 (1:1) • TFE (trifluoroethanol)
Conformational studies based on circular dichroism were performed under different conditions, such as: • 10 mM phosphate buffer, pH7 • MES buffer 10 mM, pH6 • Buffer acetate 10 mM, pH5 • Phosphate buffer 10 mM/TFE, pH7 (1:1) • TFE (trifluoroethanol)
Conformational studies based on circular dichroism were performed under different conditions, such as: • 10 mM phosphate buffer, pH7 • 10mM phosphate buffer/TFE (1:1) • TFE (trifluoroethanol)

[2] = Chemical-physical properties (isoelectric point, net charge, solubility in water); assay type: physicochemical; details: for net charge: at pH 7
P. capsici = assay type: cell-based, Phytophthora capsici Leonian
P. ultimum = assay type: cell-based, Pythium ultimum var. ultimum Trow
P. viticola = assay type: in vivo, Plasmopara viticola (Berk. et Curt.) Berl. and De Toni; details: grapevine (Vitis vinifera cv. Pinot noir) leaf discs; mean ± standard deviation vs untreated control; concentration not given
[3] = tested on: Agrobacterium tumefaciens GV3101; assay: Specificity: growth in liquid culture (OD620); assay type: cell-based; details: 200 µM; LB medium; measured hourly up to 5 h
[4] = tested on: human kidney proximal tubular cells (HKC-8)
[5] = pH 7-TFE: phosphate buffer 10 mM/TFE (1:1)

Row | SMILES | Disordered (%) ([1]; 10 mM phosphate buffer, pH 7) | Helixes (%) ([1]; 10 mM phosphate buffer, pH 7) | Sheets (%) ([1]; 10 mM phosphate buffer, pH 7) | Turns (%) ([1]; 10 mM phosphate buffer, pH 7) | Disordered (%) ([1]; TFE (trifluoroethanol)) | Helixes (%) ([1]; TFE (trifluoroethanol)) | Sheets (%) ([1]; TFE (trifluoroethanol)) | Turns (%) ([1]; TFE (trifluoroethanol)) | Disordered (%) [1, 5] | Helixes (%) [1, 5] | Sheets (%) [1, 5] | Turns (%) [1, 5] | isoelectric point [2] | net charge [2] | solubility in water [2] | P. capsici (PIC - %) (P. capsici) | P. ultimum (IPP - %) (P. ultimum) | P. viticola (IPP - %) (P. viticola) | bacterial growth (OD620) [3] | cytotoxicity (cell viability, absorption at 570 nm) [4] | further results
1 | CSCC[C@@H]1NC(=O)[C@H](Cc2c[nH]c3ccccc23)NC(=O)[C@H](CCCNC(=N)N)NC(=O)CCNC(=O)[C@H](CCCNC(=N)N)NC(=O)[C@H](CCCNC(=N)N)NC(=O)[C@H](Cc2ccc(O)cc2)NC(=O)[C@H](C(C)C)NC(=O)[C@H](CC(C)C)NC1=O [CP20, βA-R-W-M-L-V-Y-R-R] (cyclo(LVYRR[βAla]RWM)) | 32% | 6% | 40% | 22% | 33% | 10% | 35% | 22% | 34% | 8% | 36% | 22% | 12.4 pH | +3 | good solubility in water | 100% and 100 ± 0 (a) % | 75% and 75.98 ± 4.54 (c) % | 89.93 ± 11.69 (b) % | no alteration in bacterial growth | not toxic to human cells | Disordered (%) ([1]; MES buffer 10 mM, pH 6): 34%; Helixes (%) ([1]; MES buffer 10 mM, pH 6): 8%; Sheets (%) ([1]; MES buffer 10 mM, pH 6): 37%; Turns (%) ([1]; MES buffer 10 mM, pH 6): 21%; Disordered (%) ([1]; acetate buffer 10 mM, pH 5): 31%; Helixes (%) ([1]; acetate buffer 10 mM, pH 5): 7%; Sheets (%) ([1]; acetate buffer 10 mM, pH 5): 39%; Turns (%) ([1]; acetate buffer 10 mM, pH 5): 23%
2 | CC(C)C[C@@H]1NC(=O)[C@H](CCCNC(=N)N)NC(=O)CNC(=O)CCNC(=O)[C@H](C(C)C)NC(=O)[C@H](CCCNC(=N)N)NC(=O)[C@H](CC(C)C)NC(=O)[C@H](Cc2c[nH]c3ccccc23)NC(=O)[C@H](CCCNC(=N)N)NC1=O [CP32, βA-G-R-L-R-W-L-R-V] (cyclo(GRLRWLRV[βAla])) | 43% | 5% | 34% | 18% | 47% | 6% | 29% | 18% | 44% | 5% | 33% | 18% | 14 pH | +3 | good solubility in water | 89.25 ± 7.35 (b) % | 85% and 85.42 ± 7.28 (b) % | 95% and 94.92 ± 6.45 (b) % | no alteration in bacterial growth | not toxic to human cells | 
